# Data from US12678458B2, “Antiseptic composition” (BOBS SILVER, priority 2020, dated 2026).
# Key:
# [1] = test system: Total Gram-positive bacteria; type: cell-based
# [2] = test system: Total bacteria; experiment: Minimum inhibitory concentrations, two-fold serial dilution in agar; type: cell-based
# [3] = test system: Staphylococcus aureus; experiment: as above; type: cell-based; settings: S. aureus
# [4] = test system: Clostridium perfringens ATCC 13124 (NBIMCC 8615); type: cell-based; settings: C. perfringens; 0.1 ml in 9 mm wells
# [5] = test system: Total bacteria; experiment: Agar diffusion test, inhibitory zones; type: cell-based
# [6] = test system: Total (all microorganisms); experiment: Agar diffusion test, inhibitory zones; type: cell-based
# [7] = test system: Streptococcus pyogenes; experiment: Agar diffusion test, inhibitory zones; type: cell-based; settings: S. pyogenes; 0.1 ml in 9 mm wells
# [8] = test system: Staphylococcus aureus subsp. aureus ATCC-6538 (NBIMCC 3359); experiment: Agar diffusion test, inhibitory zones; type: cell-based; settings: S. aureus; 0.1 ml in 9 mm wells
# [9] = test system: Pseudomonas aeruginosa; experiment: Minimum inhibitory concentrations, two-fold serial dilution in agar; type: cell-based; settings: P. aeruginosa
# [10] = test system: Candida albicans; experiment: as above; type: cell-based; settings: C. albicans
# [11] = test system: Esherichia coli ATCC-8739 (NBIMCC 3397); experiment: Agar diffusion test, inhibitory zones; type: cell-based, Escherichia coli; settings: E. coli; 0.1 ml in 9 mm wells
# [12] = test system: Salmonella enterica subsp. enterica ATCC 1304 (NBIMCC 8691); experiment: Agar diffusion test, inhibitory zones; type: cell-based; settings: S. enterica; 0.1 ml in 9 mm wells
# [13] = test system: Candida albicans ATCC 10231 (NBIMCC 74); experiment: Agar diffusion test, inhibitory zones; type: cell-based; settings: C. albicans; 0.1 ml in 9 mm wells
# [14] = test system: Clostridium perfringens; experiment: microbe, parasite or virus in culture; type: cell-based
# [15] = test system: Total Gram-negative; experiment: Agar diffusion test, inhibitory zones; type: cell-based
# [16] = test system: Streptococcus pyogenes; experiment: Minimum inhibitory concentrations, two-fold serial dilution in agar; type: cell-based; settings: S. pyogenes
# [17] = test system: Esherichia coli; experiment: as above; type: cell-based, Escherichia coli; settings: E. coli
# [18] = test system: Salmonella enterica; experiment: microbe, parasite or virus in culture; type: cell-based
# [19] = test system: Pseudomonas aeruginosa; experiment: Agar diffusion test, inhibitory zones; type: cell-based; settings: P. aeruginosa; 0.1 ml in 9 mm wells
# [20] = test system: Total Gram-negative; experiment: organism not typed; type: cell-based
# [21] = test system: Total (all microorganisms); experiment: Minimum inhibitory concentrations, two-fold serial dilution in agar; type: cell-based
# [22] = test system: Total Gram-positive; experiment: organism not typed; type: cell-based
# [23] = test system: HRV-A16; settings: well-known antiviral compound; cited from earlier work
compound,measurement,setting,value
"CS(=O)(=O)c1ccc([C@@H](O)[C@@H](CO)NC(=O)C(Cl)Cl)cc1 [Thiamphenicol, thiamphenicol]",Inhibitory zones in mm,[1],24.3 ± 2.1 mm
same,Th D,[2],66.7 µg/mL
same,MIC50,"[2]; Total bacteria, read-out: Th MIC50",14 µg/mL
same,Th D,[3],64 µg/mL
same,MIC50,"[3]; Staphylococcus aureus, read-out: Th MIC50",16 µg/mL
same,Inhibitory zones in mm,[4],21.3 ± 0.5 mm
same,Inhibitory zones in mm,[5],29.9 ± 5.7 mm
same,Inhibitory zones in mm,[6],29.7 ± 5.3 mm
same,Inhibitory zones in mm,[7],26.0 ± 4.5 mm
same,Inhibitory zones in mm,[8],25.7 ± 3.3 mm
same,Th D,[9],64 µg/mL
same,MIC50,"[9]; Pseudomonas aeruginosa, read-out: Th MIC50",8 µg/mL
same,Th D,[10],128 µg/mL
same,MIC50,"[10]; Candida albicans, read-out: Th MIC50",32 µg/mL
same,Inhibitory zones in mm,[11],36.0 ± 0.8 mm
same,Inhibitory zones in mm,[12],35.3 ± 0.8 mm
same,Inhibitory zones in mm,[13],28.7 ± 3.7 mm
same,Th D,[14]; C. perfringens,16 µg/mL
same,MIC50,"[14]; Clostridium perfringens, read-out: Th MIC50",4 µg/mL
same,Inhibitory zones in mm,[15],35.4 ± 0.5 mm
same,Th D,[16],128 µg/mL
same,MIC50,"[16]; Streptococcus pyogenes, read-out: Th MIC50",32 µg/mL
same,Th D,[17],64 µg/mL
same,MIC50,"[17]; Escherichia coli, read-out: Th MIC50",8 µg/mL
same,Th D,[18]; S. enterica,64 µg/mL
same,MIC50,"[18]; Salmonella enterica, read-out: Th MIC50",16 µg/mL
same,Inhibitory zones in mm,[19],34.8 ± 0.8 mm
same,Th D,[20],64.00 µg/mL
same,MIC50,[20]; read-out: Th MIC50,10.7 µg/mL
same,Th D,[21],84.00 µg/mL
same,MIC50,"[21]; Total (all microorganisms), read-out: Th MIC50",16.6 µg/mL
same,Th D,[22],42.00 µg/mL
same,MIC50,[22]; read-out: Th MIC50,21 µg/mL
CCOC(=O)/C=C/[C@H](C[C@@H]1CCNC1=O)NC(=O)[C@@H](CC(=O)[C@@H](NC(=O)c1cc(C)on1)C(C)C)Cc1ccc(F)cc1 [rupintrivir],antiviral response,[23],almost complete response
